Reference: patent US8367687B2, “Pyrazole derivatives” (Novartis AG, priority 2007, dated 2013)
Where two headings read alike, the source gives them in different places.

Tests used:
CDK4 = CDK4 (Homo sapiens, UniProt P11802); assay: CDK4 HTRF; assay type: biochemical
CDK2 cyA = CDK2 cyA (Homo sapiens, UniProt P24941); assay: CDK2 cyA IMAP; assay type: biochemical
hCDK1/B = hCDK1/B (Homo sapiens, UniProt P06493); assay: hCDK1/B; assay type: biochemical
p-pRb/S780 = p-pRb/S780 ELISA Cellular Assay (CDK4 ELISA assay); assay type: cell-based; conditions: cells treated for 24 hrs
Description: Biological Activity p-pRb/S780 ELISA Cellular Assay
Maxisorp plates (Nunc 442404) are coated with 50 ul of 1 ug/mL total phospholated Retinoblast Protein (pRb) antibody (4H1 Cell Signaling 9309L) diluted in DPBS (Phosphate Buffered Saline) overnight at 4° C. The next day plates are blocked with Superblock in TBST (Pierce 37535) for one hour to overnight—changing block once during that time. Cells are plated at 50-60% confluency in a 96 well plate (Corning 3585) in 100 uL complete media (media containing fetal bovine serum (Gibco 1600-044), 2 mM L-Glutamine (Gibco 25030), and 1% Penicillin/Streptomycin (Gibco 15140-122) and grown overnight in a humidified chamber at 37° C. and 5% CO2. Compounds (in DMSO) are diluted in media to create a 7 point dilution series of compound with concentrations ranging from 110 uM to 0.027 uM. 10 ul of the diluted compounds are added to the cells, with final concentrations on cells ranging from 10 uM to 0.002 uM. Cells are treated for 24 hrs in a humidified chamber at 37° C. and 5% CO2. Following compound incubation, cells are lysed with 40 uL/well lysis buffer (50 mM Tris-HCL pH 7.5 (Invitrogen 15567-027), 120 mM NaCl (Promega V4221), 1 mM EDTA (Gibco 15575-038), 6 mM EGTA (Fisher 02783-100), 1% Nonidet P40 (Fluka R02771). Plates are placed on Titerplate shaker (Labline model 4625) for 5 minutes at 4° C. to lyse cells. After lysis, 10 ul of cell lysate and 50 ul 1×PBS/10% Superblock (Gibco 10010 and Pierce 37535) is added to each well of the precoated and blocked Maxisorp plate and allowed to bind at room temperature for 2 hours on Oribtron Rotator II (Boekel Industries Model 260250). Plates are then washed 3× with 1×TBST (Teknova T9201) using Biotek platewasher equipped with a Biostack. The final wash is not aspirated. The final wash is removed by flicking off and tapping plate on paper towels. ppRbS780 antibody (Cell Signaling 9307L) is diluted 1:1000 in 1×PBS/10% Superblock (Gibco 10010 and Pierce 37535) and 50 ul is added to each well. Plates are then incubated 1 hour on Oribtron Rotator II (Boekel Industries Model 260250). Plates are then washed as previously described. Goat anti-rabbit HRP (Promega W401B) is diluted 1:2500 1×PBS/10% Superblock (Gibco 10010 and Pierce 37535) and 50 ul is added to each well. Plates are then incubated 30 minutes on Oribtron Rotator II. Plates are then washed as previously described. 50 uL Ultra TMB ELISA (Pierce 34028) is then added to each well. Plates are incubated 5-20 minutes until blue color develops. 50 ul 2M Sulfuric acid (Mallinckrodt 2468-46) is then added to each well to stop the reaction. Absorbance at 450 nm for each plate is read on Spectramax Plus (Molecular Devices).

[1] = Table 2, read-out: CDK4 HTRF/ IC50
[2] = Table 2, read-out: CDK2cyA IMAP/ IC50
[3] = Table 2, read-out: p_pRb Cap EL/ IC50_ppRbinh
[4] = Table 1, read-out: CDK2 cyA IMAP
[5] = Table 1, read-out: CDK4 ELISA assay IC50

Chain of CDK4 (P11802 whole entry): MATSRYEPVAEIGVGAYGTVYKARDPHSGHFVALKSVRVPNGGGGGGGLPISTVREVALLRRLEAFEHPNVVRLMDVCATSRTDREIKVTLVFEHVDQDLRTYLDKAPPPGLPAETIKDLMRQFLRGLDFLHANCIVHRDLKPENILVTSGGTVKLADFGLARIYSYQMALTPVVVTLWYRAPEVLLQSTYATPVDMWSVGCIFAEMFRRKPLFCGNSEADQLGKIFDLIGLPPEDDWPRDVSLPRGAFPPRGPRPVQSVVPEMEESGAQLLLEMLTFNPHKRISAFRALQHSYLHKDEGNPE
Chain of CDK4 (P24385 whole entry partner): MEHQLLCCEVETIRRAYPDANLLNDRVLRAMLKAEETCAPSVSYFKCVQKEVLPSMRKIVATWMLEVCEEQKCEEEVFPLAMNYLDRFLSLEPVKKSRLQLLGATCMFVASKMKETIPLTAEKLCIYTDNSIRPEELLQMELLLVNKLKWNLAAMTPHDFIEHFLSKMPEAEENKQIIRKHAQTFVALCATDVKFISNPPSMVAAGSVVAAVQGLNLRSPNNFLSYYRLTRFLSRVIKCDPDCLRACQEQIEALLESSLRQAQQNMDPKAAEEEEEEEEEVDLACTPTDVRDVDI
Chain of hCDK1/B (P06493 whole entry): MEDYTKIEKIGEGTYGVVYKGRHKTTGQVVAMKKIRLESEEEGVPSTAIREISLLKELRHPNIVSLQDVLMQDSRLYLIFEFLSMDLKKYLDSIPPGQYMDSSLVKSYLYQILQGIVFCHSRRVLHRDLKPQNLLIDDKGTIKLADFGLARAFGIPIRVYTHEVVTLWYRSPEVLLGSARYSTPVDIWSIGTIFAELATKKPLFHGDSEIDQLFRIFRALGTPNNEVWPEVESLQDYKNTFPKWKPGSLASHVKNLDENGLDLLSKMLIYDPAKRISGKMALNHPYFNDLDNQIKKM
Chain of hCDK1/B (P14635 whole entry partner): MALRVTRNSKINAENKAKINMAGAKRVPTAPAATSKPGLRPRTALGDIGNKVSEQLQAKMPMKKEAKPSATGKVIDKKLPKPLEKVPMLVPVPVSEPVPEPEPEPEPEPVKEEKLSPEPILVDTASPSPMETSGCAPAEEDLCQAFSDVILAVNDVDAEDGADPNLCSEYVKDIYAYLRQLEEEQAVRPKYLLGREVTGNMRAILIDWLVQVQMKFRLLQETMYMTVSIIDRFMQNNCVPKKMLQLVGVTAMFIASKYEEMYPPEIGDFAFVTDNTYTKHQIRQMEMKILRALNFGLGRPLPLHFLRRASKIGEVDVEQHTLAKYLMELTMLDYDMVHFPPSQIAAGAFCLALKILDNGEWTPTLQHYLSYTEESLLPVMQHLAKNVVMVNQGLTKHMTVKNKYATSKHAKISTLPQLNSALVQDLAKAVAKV

Row | SMILES | IC50 (CDK4; [1]) [µM] | IC50 (CDK2 cyA; [2]) [µM] | IC50 (hCDK1/B; Table 2) [µM] | IC50 (p-pRb/S780; [3]) [µM] | IC50 (CDK4; Table 1, read-out: CDK4 HTRF) [µM] | IC50 (CDK2 cyA; [4]) [µM] | IC50 (hCDK1/B; Table 1) [µM] | IC50 (p-pRb/S780; [5]) [µM]
1 | Cc1n[nH]cc1-c1ccnc(NCCc2ccccc2)n1 [Example 91] | < 1 | < 10 | < 10 | < 15 |  |  |  | 
2 | Cc1n[nH]cc1-c1ccnc(NCc2cc(F)cc(F)c2)n1 [Example 135] | < 1 | < 5 | < 5 | < 15 |  |  |  | 
3 | Cc1n[nH]cc1-c1ccnc(NCc2ccncc2)n1 [Example 104] | < 5 | < 15 | < 15 | < 15 |  |  |  | 
4 | CC(C)CNc1nccc(-c2c[nH]nc2C(C)C)n1 [Example 163] | < 0.1 | < 0.1 | < 0.5 | < 5 |  |  |  | 
5 | c1cc(-c2cn[nH]c2C2CCCC2)cc(NCCN2CCCCC2)n1 [Example 61] |  |  |  |  | < 5 | ≥ 15 | ≥ 15 | < 15
6 | COc1cc(CNc2nccc(-c3c[nH]nc3C)n2)cc(OC)c1 [Example 133] | < 15 | ≥ 15 | ≥ 15 | < 15 |  |  |  | 
7 | CCC(C)Nc1nccc(-c2c[nH]nc2C)n1 (stereo not drawn) [Example 110] | < 1 | < 5 | < 10 | < 15 |  |  |  | 
8 | CC(C)c1n[nH]cc1-c1ccnc(NC2CCc3ccccc32)n1 (stereo not drawn) [Example 174] | < 0.05 | < 1 | < 1 | < 5 |  |  |  | 
9 | COCCCNc1nccc(-c2c[nH]nc2C)n1 [Example 108] | < 5 | ≥ 15 | < 15 | < 15 |  |  |  | 
10 | Cc1cc(C)n(CCNc2nccc(-c3c[nH]nc3C(C)C)n2)n1 [Example 149] | < 5 | < 15 | < 10 | < 15 |  |  |  | 
11 | Cc1n[nH]cc1-c1ccnc(NC2CCCN(C(=O)OC(C)(C)C)C2)n1 (stereo not drawn) [Example 115] | < 10 | ≥ 15 | ≥ 15 | < 15 |  |  |  | 
12 | CC(C)c1n[nH]cc1-c1ccnc(NC2CCCCC2)n1 [Example 166] | < 0.05 | < 0.05 | < 0.05 | < 1 |  |  |  | 
13 | Cc1n[nH]cc1-c1ccnc(NCCCN(C)C)n1 [Example 118] | < 15 | ≥ 15 | ≥ 15 | < 15 |  |  |  | 
14 | CC(C)c1n[nH]cc1-c1ccnc(N[C@@H]2CCc3ccccc32)n1 [Example 176, (R)-Indan-1-yl-[4-(3-isopropyl-1H-pyrazol-4-yl)-pyrimidin-2-yl]-amine] | < 0.05 | < 0.5 | < 0.5 | < 1 |  |  |  | 
15 | CC(C)c1n[nH]cc1-c1ccnc(NC2CCc3cc(F)ccc32)n1 (stereo not drawn) [Example 189] | < 0.1 | < 0.5 | < 0.5 | < 1 |  |  |  | 
16 | CC(C)c1n[nH]cc1-c1ccnc(N[C@@H]2CCCc3ccccc32)n1 [Example 177] | < 0.05 | < 0.5 | < 5 | < 1 |  |  |  | 
17 | CC(C)c1[nH]ncc1-c1ccnc(NCCN2CCCCC2)c1 [Example 31] |  |  |  |  | < 5 | ≥ 15 | ≥ 15 | < 15

Row | SMILES | IC50 (CDK4; [1]) [µM] | IC50 (CDK2 cyA; [2]) [µM] | IC50 (hCDK1/B; Table 2) [µM] | IC50 (p-pRb/S780; [3]) [µM] | IC50 (CDK4; Table 1, read-out: CDK4 HTRF) [µM] | IC50 (CDK2 cyA; [4]) [µM] | IC50 (hCDK1/B; Table 1) [µM] | IC50 (p-pRb/S780; [5]) [µM]
18 | COc1ccc(CNc2nccc(-c3c[nH]nc3C)n2)cc1 [Example 100] | < 5 | < 15 | < 15 | < 15 |  |  |  | 
19 | Cc1n[nH]cc1-c1ccnc(NCC2CC2)n1 [Example 124] | < 5 | < 10 | < 10 | < 15 |  |  |  | 
20 | CC(C)c1[nH]ncc1-c1ccnc(NCc2ccc3c(c2)OCO3)c1 [Example 35] |  |  |  |  | < 5 | < 5 | < 5 | < 15
21 | CC(C)c1[nH]ncc1-c1ccnc(NCCN2CCOCC2)c1 [Example 32] |  |  |  |  | < 5 | < 10 | ≥ 15 | < 15
22 | Cc1n[nH]cc1-c1ccnc(NCCCN2CCCC2)n1 [Example 128] | < 15 | ≥ 15 | ≥ 15 | < 15 |  |  |  | 
23 | CCC(Nc1nccc(-c2c[nH]nc2C(C)C)n1)c1ccccc1 (stereo not drawn) [Example 151] | < 0.5 | < 5 | < 1 | < 10 |  |  |  | 
24 | Cc1n[nH]cc1-c1ccnc(NCCc2c[nH]c3ccccc23)n1 [Example 116] | < 5 | < 10 | < 5 | < 15 |  |  |  | 
25 | CCN(CC)CCNc1nccc(-c2c[nH]nc2C(C)C)n1 [Example 144] | < 5 | ≥ 15 | ≥ 15 | < 15 |  |  |  | 
26 | Cc1n[nH]cc1-c1ccnc(NCc2ccc(F)cc2)n1 [Example 95] | < 5 | < 10 | < 10 | < 15 |  |  |  | 
27 | CC(C)c1[nH]ncc1-c1ccnc(NCc2ccncc2)c1 [Example 22] |  |  |  |  | < 5 | < 5 | < 5 | < 0.5
28 | CC(C)c1n[nH]cc1-c1ccnc(NC2CCNCC2)n1 [Example 141] | < 0.05 | < 1 | < 0.5 | < 5 |  |  |  | 
29 | CC(C)c1n[nH]cc1-c1ccnc(NCCN(C(C)C)C(C)C)n1 [Example 146] | < 5 | ≥ 15 | < 5 | < 15 |  |  |  | 
30 | CC(C)c1n[nH]cc1-c1ccnc(NC2Cc3ccccc3C2)n1 [Example 170] | < 0.05 | < 0.5 | < 0.5 | < 5 |  |  |  | 
31 | CC(C)c1n[nH]cc1-c1ccnc(NC2CCc3cc(Cl)ccc32)n1 (stereo not drawn) [Example 190] | < 0.5 | < 0.5 | < 5 | < 5 |  |  |  | 
32 | Cc1n[nH]cc1-c1ccnc(NCc2ccc3c(c2)OCO3)n1 [Example 102] | < 5 | < 10 | < 10 | < 15 |  |  |  | 
33 | CC(C)c1[nH]ncc1-c1ccnc(NC2CCC2)c1 [Example 2] |  |  |  |  | < 0.5 | < 0.5 | < 0.5 | < 1
